# From patent US9353152B2, “Induction of the mitochondrial permeability transition” (NewSouth Innovations Pty Limited, priority 2002, dated 2016)
# Values joined by “and” are separate entries in the source; they are usually repeats but may differ in a detail not shown here. Equal entries are not always repeated.
# Columns and labels:
# [1] = target: T1, MPTP (Rattus norvegicus, UniProt Q09073); type: biochemical
# T1 construct: Mitochondria were isolated from the livers of ˜250 g male Wistar rats; from tissue; host or cells: rat liver mitochondria (male Wistar rats)
# T1 sequence (Q09073 2-298 limits assumed): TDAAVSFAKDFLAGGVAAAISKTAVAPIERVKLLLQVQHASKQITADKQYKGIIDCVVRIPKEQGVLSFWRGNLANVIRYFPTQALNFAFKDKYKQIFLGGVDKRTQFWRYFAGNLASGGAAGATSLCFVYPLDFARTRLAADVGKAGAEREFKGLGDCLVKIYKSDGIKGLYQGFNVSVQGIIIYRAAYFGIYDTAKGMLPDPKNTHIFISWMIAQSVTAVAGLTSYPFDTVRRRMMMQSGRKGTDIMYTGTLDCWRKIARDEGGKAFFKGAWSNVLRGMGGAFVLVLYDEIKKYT
# [2] = Titration of arsenoxide compounds with DTT; type: physicochemical; details: GSAO versus Compound 1
# [3] = target: T2, mitochondrial permeability transition pore (Rattus norvegicus, UniProt Q09073); type: biochemical; details: for a given concentration
# T2 construct: Mitochondria were isolated from the livers of ˜250 g male Wistar rats; from tissue; host or cells: rat liver mitochondria (male Wistar rats)
# T2 sequence (Q09073 2-298 limits assumed): T1 sequence (Q09073 2-298 limits assumed)
# [4] = test system: BAE cells; test: Cell proliferation and viability assay (MTT); type: cell-based, bovine
# Method: (§1) BAE or human pancreatic carcinoma BxPC-3 cells were seeded at a density of 10^3 cells per well into 96 well plates in DMEM containing 10% foetal bovine serum and allowed to adhere for 24 h. Cells were washed and incubated with DMEM containing 10% foetal bovine serum and GSAO or o-GSAO and cultured for a further 48 h. Some BAE cells were arrested for 24 h in medium containing 0.25% serum and cultured for a further 48 h in medium containing 0.25% or 10% serum, in the presence of GSAO or o-GSAO. Viable attached cells were determined using MTT.
# [5] = test system: human pancreatic carcinoma BxPC-3 cells; test: Cell proliferation and viability assay (MTT); type: cell-based; details: Homo sapiens, BXPC-3; 10% serum, 48 h; read-out: IC50 for proliferation arrest of BxPC-3 cells
# Method: as §1
# [6] = Toxicity of o-GSAO in Balb-C mice; type: in vivo
# Method: FIG. 22. Toxicity of o-GSAO. Balb-C mice (6-8 week old, 3 per group) were treated subcutaneously with 1 or 10 mg/kg/day of o-GSAO in 0.1 mL of PBS. The data points are the mean±SE of the mice weights.
# [7] = Side-effects in Balb-C nude mice bearing BxPC-3 tumours; type: in vivo
# Method: Female 7 to 9 week old Balb C nude were used (UNSW Biological Resource Centre). Mice were held in groups of 3 to 5 at a 12 h day and night cycle and were given animal chow and water ad libidum. A suspension of 2.5×10^6 BxPC-3 cells in 0.2 mL of PBS was injected subcutaneously in the proximal midline. Tumours were allowed to establish and grow to a size of ˜40 mm^3 after which they were randomised into four groups. Tumour volume was calculated using the relationship, a·b^2·0.52, where a is the longest and b the shortest diameter. Animals were treated with either GSAO or o-GSAO at a dose 1 or 10 mg/kg/day in 0.1 mL of PBS. The compounds were administered subcutaneously at a site distant from the tumour. Tumour volume and animal weight was measured every 2 or 3 days.
# Balb-C nude mice bearing ˜40 mm^3 BxPC-3 tumours were randomised into four groups (n=10 or 11 per group) and treated subcutaneously with either GSAO (part A) or o-GSAO (part B) at 1 or 10 mg/kg/day in 0.1 mL of PBS. Parts C and D are the mice weights for the respective groups, where the arrow indicates start of treatment. The data points are the mean±SE of the tumour volumes or mice weights. Treatment with 10 mg/kg o-GSAO (part B) was stopped at day 14 due to necrosis and inflammation at sites of injection in 7 out of 11 mice (3/11 with severe ulcers, 4/11 with medium ulcers).
# [8] = test system: BAE cells
# [9] = test system: BAE cells; test: cells; details: Bos taurus, read-out: IC50 (μM)*
# [10] = target: T3, ANT (Rattus norvegicus, UniProt Q09073); test: Binding of GSAO-B to ANT (streptavidin pull-down, Western blot); details: 100 μM GSAO-B, 1 h; competed by 4-fold molar excess of dimercaptopropanol
# T3 construct: Mitochondria were isolated from the livers of ˜250 g male Wistar rats; from tissue; host or cells: rat liver mitochondria (male Wistar rats)
# T3 sequence (Q09073 2-298 limits assumed): T1 sequence (Q09073 2-298 limits assumed)
# Method: Rat liver mitochondria were suspended at 1 mg of protein per mL at 25° C. in 3 mM HEPES-KOH, pH 7.0 buffer containing 213 mM mannitol, 71 mM sucrose and 10 mM sodium succinate and incubated with 100 μM GSAO-B in absence or presence of 400 μM 2,3-dimercaptopropanol (Fluka, Buchs, SG, Switzerland) at room temperature on a rotating wheel for 1 h. The labelled mitochondria were washed three times with PBS and sonicated in 0.3 mL of ice-cold 25 mM Tris, pH 7.4 buffer containing 140 mM NaCl, 2.7 mM KCl, 0.5% Triton X-100, 0.05% Tween-20, 10 μM leupeptin, 10 μM aprotinin, 50 μg·mL^−1 […] and 5 mM EDTA. Lysate was clarified by centrifugation at 18000 g for 10 min at 4° C. and incubated with 30 μL of streptavidin-dynabeads (Dynal, Oslo, Norway) for 60 min at 4° C. on a rotating wheel to isolate the biotin-labelled proteins. The beads were washed 5 times with sonication buffer and the biotin-labelled proteins were released from the beads by boiling in 30 μl of SDS-Laemmli buffer for 2 minutes. Samples were resolved on 8-16% gradient iGels under reducing conditions and transferred to PVDF membrane. Proteins were detected by Western blot using a 1:500 dilution of goat anti-human ANT polyclonal antibody (Santa Cruz Biotechnology, Santa Cruz, Calif.) and 1:2000 dilution of rabbit anti-goat peroxidase-conjugated antibodies (Dako, Carpinteria, Calif.).
# [11] = 10 mg/kg/day o-GSAO s.c., day 14
smiles,measurement,setting,value
"NC(CCC(=O)NC(CSCC(=O)Nc1ccccc1[As](O)O)C(=O)NCC(=O)O)C(=O)O (stereo not drawn) [Compound 1, NH2-Glu-Cys-(CH2CONH—C6H4-o-As{OH}2)-Gly-OH]",MPTP Swelling Rate Increase/GSAO* Mean,[1],16.3
same,arsenical reactivity (titration with DTT),[2],no significant difference
same,"half-time for maximal swelling, times faster compared to GSAO",[3],3-5 times
same,times more effective than GSAO at inhibiting proliferation of BAE cells,[4],~50 times
same,selectivity for proliferating versus growth-quiescent endothelial cells,"[4]; 0.25% or 10% serum, 48 h",not selective for proliferating (angiogenic) endothelial cells
same,IC50,"[4]; Bos taurus, 10% serum, 48 h, read-out: IC50 for proliferation arrest of BAE cells",160 ± 30 nM
same,IC50,[5],~2000 nM
same,Side-effects of o-GSAO administration,"[6]; 1 mg/kg/day s.c., day 1",nil
same,Side-effects of o-GSAO administration,"[6]; 1 mg/kg/day s.c., day 2",ruffled fur; mild hyperactivity^b
same,Side-effects of o-GSAO administration,"[6]; 1 mg/kg/day s.c., day 3",ruffled fur; mild hyperactivity^b
same,Side-effects of o-GSAO administration,"[6]; 1 mg/kg/day s.c., day 4",ruffled fur; mild hyperactivity^b
same,Side-effects of o-GSAO administration,"[6]; 1 mg/kg/day s.c., day 5",ruffled fur; hyperactivity; clonic
same,Side-effects of o-GSAO administration,"[6]; 1 mg/kg/day s.c., day 6",ruffled fur; hyperactivity; clonic
same,Side-effects of o-GSAO administration,"[6]; 1 mg/kg/day s.c., day 7",ruffled fur; hyperactivity; clonic
same,Side-effects of o-GSAO administration,"[6]; 1 mg/kg/day s.c., day 8",ruffled fur; hyperactivity^b
same,Side-effects of o-GSAO administration,"[6]; 1 mg/kg/day s.c., day 9",ruffled fur; mild hyperactivity^b
same,Side-effects of o-GSAO administration,"[6]; 1 mg/kg/day s.c., day 10",ruffled fur; mild hyperactivity^b
same,Side-effects of o-GSAO administration,"[6]; 1 mg/kg/day s.c., day 11",ruffled fur; mild hyperactivity^b
same,Side-effects of o-GSAO administration,"[6]; 1 mg/kg/day s.c., day 13",nil
same,Side-effects of o-GSAO administration,"[6]; 1 mg/kg/day s.c., day 14",nil
same,Side-effects of o-GSAO administration,"[6]; 10 mg/kg/day s.c., day 1",ruffled fur; hyperactivity; mild
same,Side-effects of o-GSAO administration,"[6]; 10 mg/kg/day s.c., day 2",ruffled fur; mild hyperactivity^b
same,Side-effects of o-GSAO administration,"[6]; 10 mg/kg/day s.c., day 3",ruffled fur; mild hyperactivity^b
same,Side-effects of o-GSAO administration,"[6]; 10 mg/kg/day s.c., day 4",ruffled fur; mild hyperactivity^b
same,Side-effects of o-GSAO administration,"[6]; 10 mg/kg/day s.c., day 5",ruffled fur; hyperactivity; clonic
same,Side-effects of o-GSAO administration,"[6]; 10 mg/kg/day s.c., day 6",ruffled fur; hyperactivity; clonic
same,Side-effects of o-GSAO administration,"[6]; 10 mg/kg/day s.c., day 7",ruffled fur; hyperactivity; clonic
same,Side-effects of o-GSAO administration,"[6]; 10 mg/kg/day s.c., day 8",ruffled fur; hyperactivity^b
same,Side-effects of o-GSAO administration,"[6]; 10 mg/kg/day s.c., day 9",ruffled fur; mild hyperactivity^b
same,Side-effects of o-GSAO administration,"[6]; 10 mg/kg/day s.c., day 10",ruffled fur; mild hyperactivity^b
same,Side-effects of o-GSAO administration,"[6]; 10 mg/kg/day s.c., day 11",ruffled fur; mild hyperactivity^b
same,Side-effects of o-GSAO administration,"[6]; 10 mg/kg/day s.c., day 13",skin necrosis at the injection site
same,Side-effects of o-GSAO administration,"[6]; 10 mg/kg/day s.c., day 14",skin necrosis at the injection site
same,weight loss,"[6]; 1 or 10 mg/kg/day s.c., Balb C mice",no weight loss observed
same,skin effects with repeated injections in the same area,[6]; Balb C mice,thickening of the skin and occasional necrosis
same,weight loss,[7]; 10 mg/kg/day o-GSAO s.c.,some weight loss
same,mice with medium ulcers,[7]; [11],4/11
same,mice with severe ulcers,[7]; [11],3/11
same,mice with necrosis and inflammation at sites of injection,"[7]; 10 mg/kg/day o-GSAO s.c., treatment stopped at day 14",7 out of 11 and 7 of 11
same,behavioural side-effects in Balb C nude mice,[7]; 1 or 10 mg/kg/day s.c.,not observed
same,Fold Increase,[8],53.2
same,IC50,[9],0.16 µM
"O=[As]c1ccc(NC(=O)CSC[C@H](NC(=O)CC[C@H](NC(=O)CCCCCNC(=O)CCCCCNC(=O)CCCC[C@@H]2SC[C@@H]3NC(=O)N[C@@H]32)C(=O)O)C(=O)NCC(=O)O)cc1 (stereo partly shown) [GSAO-B, 4-(N—(S—(N-(6-((6-((biotinoyl)amino)hexanoyl)amino)hexanoyl)-glutathionyl)acetyl)amino) phenylarsenoxide]",labelling of ANT with GSAO-B,[10],Direct interaction
